In data set [1] the test system is Wild type HIV-1 (NL4-3 cytotropic strain, CXCR4 - tropic). As to the kind of experiment: Determination of antiviral activity (beta-galactosidase reporter indicator cell line, deClPhR cell system), wild type virus. The conditions noted are these: Human immunodeficiency virus 1, NL43. Type of data set: cell-based. The text has this: (§1) Determination of antiviral activity

A short description of data set [2]: Determination of cytotoxicity: Alamar Blue Cell Viability Assay. Type of data set: cell-based. Particulars: deciphr cells. The text has this: (§2) Determination of cytotoxicity: Alamar Blue™ Cell Viability Assay
(§3) The Alamar Blue™ Cell Viability Assay (Invitrogen) is a fluorimetric metod for determining the number of viable cells. The Alamar Blue Reagent contains the cell permeable non-fluorescent blue dye resazurin, which is converted to the pink and fluorescent dye resorufin in response to the action of reductases located in the cytosol, mitochondria and endoplasmic reticulum. Therefore, only living cells will convert resazurin into resorufin. Assays are performed by adding 20 µL of the Alamar Blue Reagent directly to culture wells followed by a 6-hour incubation at 37°C. The fluorescent signal is monitored using 545 nm excitation wavelength and 590 nm emission wavelength. The quantity of resofurin product as measured by fluorescence is directly proportional to the number of living cells in culture, what allows to calculate CC50 value.

Data set [3] concerns HIV-1 virus strain Resistant QCR8. Particulars: Resistance factor Rf=EC50 mutant / EC50 wt virus.
Source text: as §1
(§4) Fully infectious virus HIV-1 was produced from cloned proviral DNA reference coding either for wild-type HIV-1 or from drug-resistant virus following transfection of proviral DNA into recipient mammalian cells. Subsequent to viral protein expression and particle formation, culture supernatant was harvested and used to infect an indicator cell line. This latter cell line expresses all necessary receptors and co-receptors for HIV infection as well as the bacterial gene LacZ coding for β-galactosidase under the control of the HIV-1 long terminal repeat. In this system, amount of β-galactosidase is directly proportional to the extent of viral replication. Activity of β-galactosidase is assayed in presence of a colorless substrate which upon enzymatic conversion yields a yellow product absorbing at 405 nm. Next, variation in colorimetric readout in presence of test compounds was translated in percent viral inhibition following normalization according to absorbance values of positive (presence of anti-HIV drug) and negative (untreated) control wells included in each 96 well-plate. […] Percent inhibition data in function of drug concentration were processed by a statistical curve fitting software yielding a modeled curve from which EC50 was extrapolated.
(§5) Resistance factor Rf=EC50 mutant / EC50 wt virus

Data set [4] concerns HIV-1 virus strain Resistant 7005695. The conditions noted are these: Resistance factor Rf=EC50 mutant / EC50 wt virus.
Source text: as §1, §4, §5

For the next data set, the system named is deClPhR™ cells. As to the kind of experiment: Determination of cytotoxicity: Alamar Blue Cell Viability Assay. Format: cell-based. The conditions noted are these: Cytotoxicity; PNL4-3; deClPhR™ cells.
Source text: as §2, §3

The structures appear in SMILES notation.

The compound `C#C[C@@]1(CO)C=C[C@H](n2cc(C)c(=O)[nH]c2=O)O1` [4'-E-d4T (WA32), 2',3'-didehydro-3'-deoxy-4'-ethynylothymidine] gave a concentration for a half-maximal effect (EC50) in data set [1] of 90 nM. In addition, the CC50 in data set [2] (Cytotoxicity, PNL4-3, deClPhR™ cells) was over 200000 nM. The results for the “Rf*” value in data set [3] and in data set [4] were 1.4 and 17.3, respectively.

In turn, `C#C[C@@]1(COC(=O)CCCCCCCCCCCCC)C=C[C@H](n2cc(C)c(=O)[nH]c2=O)O1` [WA37, 1-(2,3-dideoxy-2,3-didehydro-4-ethynyl-5-O-tetradodecanoyl-bb-D-ribofuranosyl)-thymine] had an EC50 in data set [1] of 54 nM. Also, the CC50 (in data set [2] (cytotoxicity in deClPhR™ cells); in the data set with deClPhR™ cells) was over 200000 nM each time. Further, the “Rf*” value in data set [3] stood at 1.3; in data set [4], 23.7.

For the compound `C#C[C@@]1(COC(=O)CCCCCCCCCCCBr)C=C[C@H](n2cc(C)c(=O)[nH]c2=O)O1` [WA38, 1-(5-O-(12-bromododecanoyl)-2,3-dideoxy-2,3-didehydro-4-ethynyl-bb-D-ribofuranosyl)-thymine], the EC50 in data set [1] turned out to be 130 nM. Moreover, the CC50 (in data set [2] (cytotoxicity in deClPhR™ cells); in the data set with deClPhR™ cells) was over 200000 nM throughout. Moreover, the “Rf*” value in data set [3] is 1; in data set [4] it was 10.4.

`C#C[C@@]1(COC(=O)CCCCCCCCCCCN=[N+]=[N-])C=C[C@H](n2cc(C)c(=O)[nH]c2=O)O1` [WA39, 1-(5-O-(12-azidododecanoyl)-2,3-dideoxy-2,3-didehydro-4-ethynyl-bb-D-ribofuranosyl)-thymine]: the midpoint of the response in data set [1], the EC50, lay at 73 nM. Also, the CC50 (in data set [2] (cytotoxicity in deClPhR™ cells); in the data set with deClPhR™ cells) was over 200000 nM each time. Further, the entries for the “Rf*” value in data set [3] and in data set [4] were 0.8 and 12.2, respectively.

In turn, `C#C[C@@]1(COC(=O)CCCCCCCCCCCOC)C=C[C@H](n2cc(C)c(=O)[nH]c2=O)O1` [WA40, 1-(2,3-dideoxy-2,3-didehydro-4-ethynyl-5-O-(12-methoxydodecanoyl)-bb-D -ribofuranosy)-thymine] came in with an EC50 in data set [1] of 48 nM. Further, the CC50 (in data set [2] (cytotoxicity in deClPhR™ cells); in the data set with deClPhR™ cells) was over 200000 nM each time. Further, the “Rf*” value in data set [3] was 2.3; in data set [4], 17.4.

For `C#C[C@@]1(COC(=O)CCCCCCCCCCSCC)C=C[C@H](n2cc(C)c(=O)[nH]c2=O)O1` [WA42], in data set [1], the EC50 came out at 43 nM. The CC50 (in data set [2] (cytotoxicity in deClPhR™ cells); in the data set on deClPhR™ cells) was over 200000 nM throughout. Further, the entries for the “Rf*” value in data set [3] and in data set [4] were 2.3 and 16.1, respectively.

(Values after patent EP2402358A2, “2',3'-Didehydro-3'-deoxy-4'-ethynylothymidine derivatives for treatment infections caused by human immunodeficiency virus (HIV) multidrug resistant strains, method of their synthesis and pharmaceutically acceptable forms of drugs” (priority 2010, dated 2012).)
